From patent US6369050B1, “Antibacterial agents” (Fujisawa Pharmaceutical Co., Ltd., priority 1998, dated 2002) come the findings set out here.

The subject of one assay is S. pneumoniae FP1906. The assay is described as follows: Mixed respiratory infection in mice, viable S. pneumoniae in the lung (Test Example 4). The assay is classed as in vivo. The note with it: oral, 2 days after infection. The procedure:
(§1) ICR strain male mice (4 weeks old, 5 animals per group) given cyclophosphamide (200 mg/kg, ip) 4 days prior to infection were nasally infected with S. pneumoniae FP1906 (2.0×10^7 cfu/mouse) and K. pneumoniae 15004 (5.5×10^3 cfu/mouse). Each drug was orally administered three times (3, 18 and 26 hours after infection) and, at 2 days after infection, viable cells in the lung were counted.

Assay [1] concerns penicillin G-resistant S. pneumoniae. Description: Checkerboard method MIC, penicillin G-resistant S. pneumoniae (Test Example 1). The assay is classed as cell-based. The note with it: for MIC: Streptococcus pneumoniae, antibiotic used alone, read-out: MIC, single use; for MIC, combined use: CFIX and AMPC used combinedly. As for the experimental part:
(§2) Checkerboard method (cf. Hideyo Yamaguchi: “Konnichi no Koseibusshitsu (Antibiotics of today)”, page 411, published by Nanzando)
(§3) The MIC of each antibiotic used singly and the MIC of each combination of antibiotics were determined by the standard method established by the Japan Society of Chemotherapy, using Mueller-Hinton agar medium (MHA, product of Difco) for M. catarrhalis and K. pneumoniae, 5% equine blood agar (MHA+5% equine blood) for S. pneumoniae, and MHA+5% equine blood (chocolate agar) for H. influenzae. A 100-fold dilution of an overnight culture of each bacterial strain was stamp-inoculated and, after 18 hours of incubation at 37° C. (in the case of S. pneumoniae and H. influenzae, in an atmosphere containing 5% carbon dioxide), the MIC was measured (in μg/ml)
(§4) The MIC's of two individual antibiotics and the MIC's of the two respective antibiotics used combinedly were determined by the checkerboard method and the fractional inhibitory concentration index (hereinafter, “FIC index”) was determined according to the equation shown below. [formula]
(§5) ao: MIC of antibiotic A used alone; b: MIC of antibiotic B used alone; a, b: MIC's of antibiotics A and B, respectively, when they are used combinedly.

For another assay, the system named is K. pneumoniae. Description: Checkerboard method MIC, K. pneumoniae (Test Example 1). The assay is classed as cell-based. The note with it: for MIC: Klebsiella pneumoniae, antibiotic used alone, read-out: MIC, single use; for MIC, combined use: CFIX and AMPC used combinedly. The procedure: as §2, §3, §4, §5
Another assay concerns K. pneumoniae 15004. The assay is described as follows: Mixed respiratory infection in mice, viable K. pneumoniae in the lung (Test Example 4). The assay is classed as in vivo. The note with it: oral, 2 days after infection. As for the experimental part:
as §1

Where two headings read alike, the source gives them in different places. Marks after values point to notes of the source that are not given here.

As usually defined, the MIC is the lowest concentration found to suppress growth. For the compound `CC1(C)S[C@@H]2[C@H](NC(=O)[C@H](N)c3ccc(O)cc3)C(=O)N2[C@H]1C(=O)O` [AMPC, amoxicillin], the “Viable cells in the lung (logarithm), S. pneumoniae” value with S. pneumoniae FP1906 (10 mg/kg three times) was 7.04 logarithm; with S. pneumoniae FP1906 (50 mg/kg three times) it was 5.29^* logarithm. Further, the MIC in assay [1] (strain FP1884) worked out at 0.2 µg/mL; in assay [1] (strain FP1885), 0.78 µg/mL; in assay [1] (strain FP1891), 0.39 µg/mL; in assay [1] (strain FP1906), 0.76 µg/mL; in the assay with K. pneumoniae (strain 15004), 100 µg/mL; in the assay with K. pneumoniae (strain 15021), 25 µg/mL. Also, the “MIC, combined use” value in assay [1] (strain FP1884) was 0.05 µg/mL; in assay [1] (strain FP1885), 0.39 µg/mL; in assay [1] (strain FP1891), 0.025 µg/mL; in assay [1] (strain FP1906) it was 0.2 µg/mL; in the assay on K. pneumoniae (strain 15004), 50 µg/mL. Besides, the “Viable cells in the lung (logarithm), K. pneumoniae” value in the assay with K. pneumoniae 15004 (10 mg/kg three times) was 9.32^*# logarithm; in the assay on K. pneumoniae 15004 (50 mg/kg three times) it was 9.38^*# logarithm.
For `C=CC1=C(C(=O)O)N2C(=O)[C@@H](NC(=O)/C(=N\OCC(=O)O)c3csc(N)n3)[C@H]2SC1` [CFIX, Cefixime], the “Viable cells in the lung (logarithm), S. pneumoniae” value in the assay on S. pneumoniae FP1906 (10 mg/kg three times) is on record as 8.46^*# logarithm; with S. pneumoniae FP1906 (50 mg/kg three times) it was 8.26^*# logarithm. Besides, the MIC in assay [1] (strain FP1884) came to 12.5 µg/mL; in assay [1] (strain FP1885), 6.25 µg/mL; in assay [1] (strain FP1891) it was 3.13 µg/mL; in assay [1] (strain FP1906) it was 12.5 µg/mL; with K. pneumoniae (strain 15004) it was 0.05 µg/mL; with K. pneumoniae (strain 15021), 0.025 µg/mL. Also, the “MIC, combined use” value in assay [1] (strain FP1884) is 0.78 µg/mL; in assay [1] (strain FP1885), 0.1 µg/mL; in assay [1] (strain FP1891), 0.78 µg/mL; in assay [1] (strain FP1906), 1.56 µg/mL; in the assay with K. pneumoniae (strain 15004), “≦0.00313 μg/ml”; in the assay with K. pneumoniae (strain 15021) it was 0.0125 µg/mL. The “Viable cells in the lung (logarithm), K. pneumoniae” value is on record as 4.14 logarithm with K. pneumoniae 15004 (10 mg/kg three times) and 2.34 logarithm in the assay with K. pneumoniae 15004 (50 mg/kg three times).
